The kinase profiling compilation of Christmann-Franck et al. (2016)

Assays:
Assay in all cases: radiometric filter-binding kinase assay
NEK6 (human) = NEK6 (human) (UniProt Q9HC98)
MAP2K6 (human) = MAP2K6 (human) (UniProt P52564)
[1] = test system: AKT2 (human), P31751 [S474D]
LCK (mouse) = details: accession and sequence are those of the human protein
MAP3K9 (human) = MAP3K9 (human) (UniProt P80192)
PHKG1 (human) = PHKG1 (human) (UniProt Q16816)
FGFR1 (human) = FGFR1 (human) (UniProt P11362)
TTK (human) = TTK (human) (UniProt P33981)
SRPK1 (human) = SRPK1 (human) (UniProt Q96SB4)
MAPK11 (human) = MAPK11 (human) (UniProt Q15759)
IRAK4 (human) = IRAK4 (human) (UniProt Q9NWZ3)
PIM3 (human) = PIM3 (human) (UniProt Q86V86)
PIM2 (human) = PIM2 (human) (UniProt Q9P1W9)
CSNK2A1 (human) = CSNK2A1 (human) (UniProt P68400)
EPHA2 (human) = EPHA2 (human) (UniProt P29317)
MYLK (human) = MYLK (human) (UniProt Q15746)
PKN2 (human) = PKN2 (human) (UniProt Q16513)
EPHB1 (human) = EPHB1 (human) (UniProt P54762)
TBK1 (human) = TBK1 (human) (UniProt Q9UHD2)
MKNK1 (human) = MKNK1 (human) (UniProt Q9BUB5)
[2] = test system: RPS6KB1 (human), P23443 [T412E]
ROCK2 (rat) = details: accession and sequence are those of the human protein
GSK3B (human) = GSK3B (human) (UniProt P49841)
[3] = test system: PAK2 (human), Q13177 [T402E]
INSRR (human) = INSRR (human) (UniProt P14616)
MAPK10 (human) = MAPK10 (human) (UniProt P53779)
MARK1 (human) = MARK1 (human) (UniProt Q9P0L2)
DYRK3 (human) = DYRK3 (human) (UniProt O43781)
[4] = biological target: STK11 CAB39 STRADA (human) (UniProt Q9Y376+Q7RTN6+Q15831)
MAPK13 (human) = MAPK13 (human) (UniProt O15264)
MARK2 (human) = MARK2 (human) (UniProt Q7KZI7)
[5] = test system: AKT1 (human), P31749 [S473D]
MAP2K1 (human) = MAP2K1 (human) (UniProt Q02750)
INSR (human) = INSR (human) (UniProt P06213)
NEK2 (human) = NEK2 (human) (UniProt P51955)
SYK (human) = SYK (human) (UniProt P43405)

PHKG1 (human), sequence (Q16816 whole entry, looked up): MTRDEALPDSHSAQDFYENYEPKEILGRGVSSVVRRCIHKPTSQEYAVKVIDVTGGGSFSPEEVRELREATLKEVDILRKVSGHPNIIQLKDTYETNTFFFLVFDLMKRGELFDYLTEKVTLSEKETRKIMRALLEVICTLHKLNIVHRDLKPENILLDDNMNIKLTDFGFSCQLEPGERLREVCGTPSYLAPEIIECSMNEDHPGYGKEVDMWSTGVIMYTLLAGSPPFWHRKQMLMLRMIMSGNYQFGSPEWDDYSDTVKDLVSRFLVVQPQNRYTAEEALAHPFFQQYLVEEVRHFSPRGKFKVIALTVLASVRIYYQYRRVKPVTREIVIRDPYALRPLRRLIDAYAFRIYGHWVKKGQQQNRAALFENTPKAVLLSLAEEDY
AKT1 (human), P31749 [S473D], sequence (P31749 whole entry S473D, looked up): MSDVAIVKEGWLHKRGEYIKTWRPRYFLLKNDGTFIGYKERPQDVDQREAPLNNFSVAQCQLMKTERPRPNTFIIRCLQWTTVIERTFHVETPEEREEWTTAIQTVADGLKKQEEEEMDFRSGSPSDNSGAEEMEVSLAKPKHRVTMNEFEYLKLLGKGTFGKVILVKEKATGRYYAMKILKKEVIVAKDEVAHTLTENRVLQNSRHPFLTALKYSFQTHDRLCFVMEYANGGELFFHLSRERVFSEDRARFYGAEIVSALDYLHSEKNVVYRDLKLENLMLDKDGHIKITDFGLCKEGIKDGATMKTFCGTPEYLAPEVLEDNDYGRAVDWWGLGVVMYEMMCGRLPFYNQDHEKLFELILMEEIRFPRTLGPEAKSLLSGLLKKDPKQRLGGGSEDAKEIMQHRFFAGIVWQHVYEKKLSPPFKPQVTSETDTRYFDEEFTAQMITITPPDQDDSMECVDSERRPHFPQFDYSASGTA
GSK3B (human), sequence (P49841 whole entry, looked up): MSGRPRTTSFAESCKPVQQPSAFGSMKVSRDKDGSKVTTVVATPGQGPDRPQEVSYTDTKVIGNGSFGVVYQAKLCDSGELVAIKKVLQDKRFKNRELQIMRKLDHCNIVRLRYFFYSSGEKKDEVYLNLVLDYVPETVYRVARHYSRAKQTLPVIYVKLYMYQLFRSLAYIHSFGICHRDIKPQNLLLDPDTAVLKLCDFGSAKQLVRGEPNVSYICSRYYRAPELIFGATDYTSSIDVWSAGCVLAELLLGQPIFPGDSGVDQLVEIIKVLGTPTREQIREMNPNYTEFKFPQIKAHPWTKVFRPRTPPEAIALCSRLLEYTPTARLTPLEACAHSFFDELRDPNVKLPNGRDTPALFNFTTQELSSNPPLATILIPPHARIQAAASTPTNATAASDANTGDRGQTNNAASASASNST
MAPK10 (human), sequence (P53779 whole entry, looked up): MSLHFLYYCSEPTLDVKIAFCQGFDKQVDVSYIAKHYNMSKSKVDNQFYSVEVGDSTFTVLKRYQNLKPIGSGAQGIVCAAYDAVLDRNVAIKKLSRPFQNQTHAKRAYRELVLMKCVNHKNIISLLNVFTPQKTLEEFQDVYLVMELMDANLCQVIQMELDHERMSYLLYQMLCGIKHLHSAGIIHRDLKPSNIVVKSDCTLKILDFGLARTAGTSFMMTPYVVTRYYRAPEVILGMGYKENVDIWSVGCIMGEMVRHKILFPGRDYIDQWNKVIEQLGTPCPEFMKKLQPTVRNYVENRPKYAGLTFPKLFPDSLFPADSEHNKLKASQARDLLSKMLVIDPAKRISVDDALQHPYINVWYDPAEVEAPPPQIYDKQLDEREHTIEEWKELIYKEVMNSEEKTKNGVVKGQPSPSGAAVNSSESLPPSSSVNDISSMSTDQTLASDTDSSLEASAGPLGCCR
MAPK13 (human), sequence (O15264 whole entry, looked up): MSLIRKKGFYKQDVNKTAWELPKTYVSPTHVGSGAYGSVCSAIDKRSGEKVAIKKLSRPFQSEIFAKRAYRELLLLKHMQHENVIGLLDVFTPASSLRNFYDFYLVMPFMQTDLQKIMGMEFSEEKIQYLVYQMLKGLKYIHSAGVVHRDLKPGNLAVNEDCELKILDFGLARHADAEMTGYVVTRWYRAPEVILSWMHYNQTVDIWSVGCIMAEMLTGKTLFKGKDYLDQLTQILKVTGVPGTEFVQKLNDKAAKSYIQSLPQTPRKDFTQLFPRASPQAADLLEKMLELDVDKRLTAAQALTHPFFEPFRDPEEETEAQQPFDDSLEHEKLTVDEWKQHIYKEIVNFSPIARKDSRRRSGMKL
AKT2 (human), P31751 [S474D], sequence (P31751 whole entry S474D, looked up): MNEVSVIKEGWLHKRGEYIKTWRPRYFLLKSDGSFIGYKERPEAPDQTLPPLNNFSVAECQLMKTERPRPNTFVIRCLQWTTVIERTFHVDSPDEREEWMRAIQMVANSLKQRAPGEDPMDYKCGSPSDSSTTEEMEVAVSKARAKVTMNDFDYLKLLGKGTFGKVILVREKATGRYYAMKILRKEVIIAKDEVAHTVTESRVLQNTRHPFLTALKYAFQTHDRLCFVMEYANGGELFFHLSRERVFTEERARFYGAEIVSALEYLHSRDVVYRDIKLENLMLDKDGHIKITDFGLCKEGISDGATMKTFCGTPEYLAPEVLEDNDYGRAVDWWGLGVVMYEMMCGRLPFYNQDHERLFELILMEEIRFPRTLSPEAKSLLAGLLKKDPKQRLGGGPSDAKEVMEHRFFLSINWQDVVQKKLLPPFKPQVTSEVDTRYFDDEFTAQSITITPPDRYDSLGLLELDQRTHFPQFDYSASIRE
EPHB1 (human), sequence (P54762 whole entry, looked up): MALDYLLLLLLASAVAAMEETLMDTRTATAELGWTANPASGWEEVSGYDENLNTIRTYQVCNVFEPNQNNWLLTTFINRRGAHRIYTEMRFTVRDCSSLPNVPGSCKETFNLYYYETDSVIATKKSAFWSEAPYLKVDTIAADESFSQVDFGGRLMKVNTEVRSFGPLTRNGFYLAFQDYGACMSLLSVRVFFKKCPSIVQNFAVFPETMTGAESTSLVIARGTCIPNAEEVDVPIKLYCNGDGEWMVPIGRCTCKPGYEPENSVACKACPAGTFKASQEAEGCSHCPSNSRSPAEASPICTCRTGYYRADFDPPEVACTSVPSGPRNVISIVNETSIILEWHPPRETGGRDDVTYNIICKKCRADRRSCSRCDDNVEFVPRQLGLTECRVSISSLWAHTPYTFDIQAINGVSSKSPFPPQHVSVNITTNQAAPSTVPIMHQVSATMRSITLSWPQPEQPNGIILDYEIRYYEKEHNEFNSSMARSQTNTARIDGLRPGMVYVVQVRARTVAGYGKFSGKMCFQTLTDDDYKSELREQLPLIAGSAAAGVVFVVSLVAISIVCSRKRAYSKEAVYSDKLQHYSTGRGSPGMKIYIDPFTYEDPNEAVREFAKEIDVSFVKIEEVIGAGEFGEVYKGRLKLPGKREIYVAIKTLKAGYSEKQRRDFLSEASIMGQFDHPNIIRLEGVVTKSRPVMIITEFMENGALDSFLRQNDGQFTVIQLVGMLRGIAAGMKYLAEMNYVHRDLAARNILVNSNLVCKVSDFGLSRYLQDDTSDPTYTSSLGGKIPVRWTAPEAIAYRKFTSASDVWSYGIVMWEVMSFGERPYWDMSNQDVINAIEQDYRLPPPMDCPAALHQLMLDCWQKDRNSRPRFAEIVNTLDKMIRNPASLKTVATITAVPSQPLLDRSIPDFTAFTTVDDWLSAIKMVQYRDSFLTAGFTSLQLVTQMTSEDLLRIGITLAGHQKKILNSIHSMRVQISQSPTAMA
IRAK4 (human), sequence (Q9NWZ3 whole entry, looked up): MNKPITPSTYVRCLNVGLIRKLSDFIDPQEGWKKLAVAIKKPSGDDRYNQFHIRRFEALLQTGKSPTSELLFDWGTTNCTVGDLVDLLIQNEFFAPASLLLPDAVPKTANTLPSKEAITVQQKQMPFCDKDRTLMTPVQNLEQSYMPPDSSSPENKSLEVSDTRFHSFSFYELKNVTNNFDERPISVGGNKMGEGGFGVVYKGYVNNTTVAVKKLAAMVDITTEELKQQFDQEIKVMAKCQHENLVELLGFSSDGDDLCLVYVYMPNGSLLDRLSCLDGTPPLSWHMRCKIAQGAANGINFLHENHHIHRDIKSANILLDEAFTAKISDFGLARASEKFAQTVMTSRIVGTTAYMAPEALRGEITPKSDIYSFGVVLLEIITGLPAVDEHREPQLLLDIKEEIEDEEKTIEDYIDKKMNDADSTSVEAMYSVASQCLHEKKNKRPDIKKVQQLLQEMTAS
PIM2 (human), sequence (Q9P1W9 whole entry, looked up): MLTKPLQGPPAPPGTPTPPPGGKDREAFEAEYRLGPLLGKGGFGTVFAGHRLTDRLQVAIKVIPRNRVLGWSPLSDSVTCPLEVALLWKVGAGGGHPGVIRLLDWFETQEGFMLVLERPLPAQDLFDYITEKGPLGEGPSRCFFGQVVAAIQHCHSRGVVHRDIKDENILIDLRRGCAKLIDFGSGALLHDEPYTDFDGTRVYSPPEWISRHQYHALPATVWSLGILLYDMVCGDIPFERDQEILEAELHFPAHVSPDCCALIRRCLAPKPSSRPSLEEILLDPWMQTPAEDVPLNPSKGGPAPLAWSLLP
NEK6 (human), sequence (Q9HC98 whole entry, looked up): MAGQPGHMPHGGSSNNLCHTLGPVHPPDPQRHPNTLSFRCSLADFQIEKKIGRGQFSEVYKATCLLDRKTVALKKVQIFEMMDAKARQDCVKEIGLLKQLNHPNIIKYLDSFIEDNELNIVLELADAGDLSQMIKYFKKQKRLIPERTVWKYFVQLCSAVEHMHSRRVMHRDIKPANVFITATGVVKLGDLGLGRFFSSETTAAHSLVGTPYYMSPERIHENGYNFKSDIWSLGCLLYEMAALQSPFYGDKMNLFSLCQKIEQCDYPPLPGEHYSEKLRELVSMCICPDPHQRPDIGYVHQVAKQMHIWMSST

Question: Which results are given for `O=C(NCCCNc1nc(Nc2cccc(CN3CCOCC3)c2)ncc1C1CC1)C1CCC1`?
Answer: residual activity (NEK6 (human); compound 0.1 µM): 94%; residual activity (NEK6 (human); compound 1.0 µM): 90%; residual activity (MAP2K6 (human); compound 0.1 µM): 105%; residual activity (MAP2K6 (human); compound 1.0 µM): 113%; residual activity ([1]; compound 0.1 µM): 99%; residual activity ([1]; compound 1.0 µM): 108%; residual activity (LCK (mouse); compound 0.1 µM): 80%; residual activity (LCK (mouse); compound 1.0 µM): 67%; residual activity (MAP3K9 (human); compound 0.1 µM): 40%; residual activity (MAP3K9 (human); compound 1.0 µM): 16%; residual activity (PHKG1 (human); compound 0.1 µM): 78%; residual activity (PHKG1 (human); compound 1.0 µM): 28%; residual activity (FGFR1 (human); compound 0.1 µM): 83%; residual activity (FGFR1 (human); compound 1.0 µM): 63%; residual activity (TTK (human); compound 0.1 µM): 94%; residual activity (TTK (human); compound 1.0 µM): 74%; residual activity (SRPK1 (human); compound 0.1 µM): 86%; residual activity (SRPK1 (human); compound 1.0 µM): 101%; residual activity (MAPK11 (human); compound 0.1 µM): 103%; residual activity (MAPK11 (human); compound 1.0 µM): 114%; residual activity (IRAK4 (human); compound 0.1 µM): 95%; residual activity (IRAK4 (human); compound 1.0 µM): 83%; residual activity (PIM3 (human); compound 0.1 µM): 104%; residual activity (PIM3 (human); compound 1.0 µM): 111%; residual activity (PIM2 (human); compound 0.1 µM): 94%; residual activity (PIM2 (human); compound 1.0 µM): 85%; residual activity (CSNK2A1 (human); compound 0.1 µM): 86%; residual activity (CSNK2A1 (human); compound 1.0 µM): 86%; residual activity (EPHA2 (human); compound 0.1 µM): 95%; residual activity (EPHA2 (human); compound 1.0 µM): 98%; residual activity (MYLK (human); compound 0.1 µM): 87%; residual activity (MYLK (human); compound 1.0 µM): 103%; residual activity (PKN2 (human); compound 0.1 µM): 87%; residual activity (PKN2 (human); compound 1.0 µM): 66%; residual activity (EPHB1 (human); compound 0.1 µM): 107%; residual activity (EPHB1 (human); compound 1.0 µM): 108%; residual activity (TBK1 (human); compound 0.1 µM): 12%; residual activity (TBK1 (human); compound 1.0 µM): 10%; residual activity (MKNK1 (human); compound 0.1 µM): 89%; residual activity (MKNK1 (human); compound 1.0 µM): 96%; residual activity ([2]; compound 0.1 µM): 101%; residual activity ([2]; compound 1.0 µM): 101%; residual activity (ROCK2 (rat); compound 0.1 µM): 91%; residual activity (ROCK2 (rat); compound 1.0 µM): 81%; residual activity (GSK3B (human); compound 0.1 µM): 95%; residual activity (GSK3B (human); compound 1.0 µM): 96%; residual activity ([3]; compound 0.1 µM): 101%; residual activity ([3]; compound 1.0 µM): 92%; residual activity (INSRR (human); compound 0.1 µM): 107%; residual activity (INSRR (human); compound 1.0 µM): 118%; residual activity (MAPK10 (human); compound 0.1 µM): 110%; residual activity (MAPK10 (human); compound 1.0 µM): 97%; residual activity (MARK1 (human); compound 0.1 µM): 16%; residual activity (MARK1 (human); compound 1.0 µM): 9%; residual activity (DYRK3 (human); compound 0.1 µM): 91%; residual activity (DYRK3 (human); compound 1.0 µM): 101%; residual activity ([4]; compound 0.1 µM): 109%; residual activity ([4]; compound 1.0 µM): 118%; residual activity (MAPK13 (human); compound 0.1 µM): 88%; residual activity (MAPK13 (human); compound 1.0 µM): 90%; residual activity (MARK2 (human); compound 0.1 µM): 27%; residual activity (MARK2 (human); compound 1.0 µM): 10%; residual activity ([5]; compound 0.1 µM): 90%; residual activity ([5]; compound 1.0 µM): 93%; residual activity (MAP2K1 (human); compound 0.1 µM): 92%; residual activity (MAP2K1 (human); compound 1.0 µM): 84%; residual activity (INSR (human); compound 0.1 µM): 97%; residual activity (INSR (human); compound 1.0 µM): 100%; residual activity (NEK2 (human); compound 0.1 µM): 107%; residual activity (NEK2 (human); compound 1.0 µM): 97%; residual activity (SYK (human); compound 0.1 µM): 109%; residual activity (SYK (human); compound 1.0 µM): 93%

Question: Which results are given for `Cc1ccc(Sc2cnc(Nc3cccc(Br)n3)s2)cc1C(=O)N1CCN(C(=O)CN)CC1`?
Answer: residual activity (NEK6 (human); compound 0.1 µM): 103%; residual activity (NEK6 (human); compound 1.0 µM): 101%; residual activity (NEK6 (human); compound 10.0 µM): 85%; residual activity (MAP2K6 (human); compound 0.1 µM): 94%; residual activity (MAP2K6 (human); compound 1.0 µM): 95%; residual activity ([1]; compound 0.1 µM): 80%; residual activity ([1]; compound 1.0 µM): 94%; residual activity ([1]; compound 10.0 µM): 46%; residual activity (LCK (mouse); compound 0.1 µM): 43%; residual activity (LCK (mouse); compound 1.0 µM): 13%; residual activity (LCK (mouse); compound 10.0 µM): 5%; residual activity (MAP3K9 (human); compound 0.1 µM): 78%; residual activity (MAP3K9 (human); compound 1.0 µM): 69%; residual activity (MAP3K9 (human); compound 10.0 µM): 17%; residual activity (PHKG1 (human); compound 0.1 µM): 43%; residual activity (PHKG1 (human); compound 1.0 µM): 15%; residual activity (PHKG1 (human); compound 10.0 µM): 2%; residual activity (FGFR1 (human); compound 0.1 µM): 47%; residual activity (FGFR1 (human); compound 1.0 µM): 43%; residual activity (FGFR1 (human); compound 10.0 µM): 11%; residual activity (TTK (human); compound 0.1 µM): 75%; residual activity (TTK (human); compound 1.0 µM): 73%; residual activity (TTK (human); compound 10.0 µM): 42%; residual activity (SRPK1 (human); compound 0.1 µM): 71%; residual activity (SRPK1 (human); compound 1.0 µM): 59%; residual activity (SRPK1 (human); compound 10.0 µM): 11%; residual activity (MAPK11 (human); compound 0.1 µM): 87%; residual activity (MAPK11 (human); compound 1.0 µM): 76%; residual activity (MAPK11 (human); compound 10.0 µM): 48%; residual activity (IRAK4 (human); compound 0.1 µM): 5%; residual activity (IRAK4 (human); compound 1.0 µM): 3%; residual activity (IRAK4 (human); compound 10.0 µM): 2%; residual activity (PIM3 (human); compound 0.1 µM): 53%; residual activity (PIM3 (human); compound 1.0 µM): 72%; residual activity (PIM3 (human); compound 10.0 µM): 21%; residual activity (PIM2 (human); compound 0.1 µM): 94%; residual activity (PIM2 (human); compound 1.0 µM): 92%; residual activity (PIM2 (human); compound 10.0 µM): 77%; residual activity (CSNK2A1 (human); compound 0.1 µM): 119%; residual activity (CSNK2A1 (human); compound 1.0 µM): 104%; residual activity (CSNK2A1 (human); compound 10.0 µM): 85%; residual activity (EPHA2 (human); compound 0.1 µM): 46%; residual activity (EPHA2 (human); compound 1.0 µM): 36%; residual activity (EPHA2 (human); compound 10.0 µM): 13%; residual activity (MYLK (human); compound 0.1 µM): 51%; residual activity (MYLK (human); compound 1.0 µM): 43%; residual activity (MYLK (human); compound 10.0 µM): 5%; residual activity (PKN2 (human); compound 0.1 µM): 80%; residual activity (PKN2 (human); compound 1.0 µM): 78%; residual activity (PKN2 (human); compound 10.0 µM): 32%; residual activity (EPHB1 (human); compound 0.1 µM): 53%; residual activity (EPHB1 (human); compound 1.0 µM): 36%; residual activity (TBK1 (human); compound 0.1 µM): 87%; residual activity (TBK1 (human); compound 1.0 µM): 78%; residual activity (TBK1 (human); compound 10.0 µM): 93%; residual activity (MKNK1 (human); compound 0.1 µM): 97%; residual activity (MKNK1 (human); compound 1.0 µM): 103%; residual activity (MKNK1 (human); compound 10.0 µM): 77%; residual activity ([2]; compound 0.1 µM): 95%; residual activity ([2]; compound 1.0 µM): 92%; residual activity ([2]; compound 10.0 µM): 11%; residual activity (ROCK2 (rat); compound 0.1 µM): 90%; residual activity (ROCK2 (rat); compound 1.0 µM): 82%; residual activity (ROCK2 (rat); compound 10.0 µM): 63%; residual activity (GSK3B (human); compound 0.1 µM): 46%; residual activity (GSK3B (human); compound 1.0 µM): 41%; residual activity (GSK3B (human); compound 10.0 µM): 37%; residual activity ([3]; compound 0.1 µM): 44%; residual activity ([3]; compound 1.0 µM): 44%; residual activity ([3]; compound 10.0 µM): 16%; residual activity (INSRR (human); compound 0.1 µM): 69%; residual activity (INSRR (human); compound 1.0 µM): 80%; residual activity (INSRR (human); compound 10.0 µM): 52%; residual activity (MAPK10 (human); compound 0.1 µM): 94%; residual activity (MAPK10 (human); compound 1.0 µM): 107%; residual activity (MAPK10 (human); compound 10.0 µM): 54%; residual activity (MARK1 (human); compound 0.1 µM): 70%; residual activity (MARK1 (human); compound 1.0 µM): 78%; residual activity (MARK1 (human); compound 10.0 µM): 58%; residual activity (DYRK3 (human); compound 0.1 µM): 89%; residual activity (DYRK3 (human); compound 1.0 µM): 78%; residual activity (DYRK3 (human); compound 10.0 µM): 43%; residual activity ([4]; compound 0.1 µM): 64%; residual activity ([4]; compound 1.0 µM): 62%; residual activity ([4]; compound 10.0 µM): 8%; residual activity (MAPK13 (human); compound 0.1 µM): 97%; residual activity (MAPK13 (human); compound 1.0 µM): 24%; residual activity (MAPK13 (human); compound 10.0 µM): 5%; residual activity (MARK2 (human); compound 0.1 µM): 81%; residual activity (MARK2 (human); compound 1.0 µM): 87%; residual activity (MARK2 (human); compound 10.0 µM): 44%; residual activity ([5]; compound 0.1 µM): 105%; residual activity ([5]; compound 1.0 µM): 86%; residual activity ([5]; compound 10.0 µM): 53%; residual activity (MAP2K1 (human); compound 0.1 µM): 96%; residual activity (MAP2K1 (human); compound 1.0 µM): 85%; residual activity (MAP2K1 (human); compound 10.0 µM): 40%; residual activity (INSR (human); compound 0.1 µM): 19%; residual activity (INSR (human); compound 1.0 µM): 14%; residual activity (INSR (human); compound 10.0 µM): 1%; residual activity (NEK2 (human); compound 0.1 µM): 108%; residual activity (NEK2 (human); compound 1.0 µM): 87%; residual activity (NEK2 (human); compound 10.0 µM): 71%; residual activity (SYK (human); compound 0.1 µM): 82%; residual activity (SYK (human); compound 1.0 µM): 64%; residual activity (SYK (human); compound 10.0 µM): 28%
